PubChem BioAssay AID330 (DTP/NCI, 2004)
Several values for one entry are separate records, joined by “and”; a condition that tells them apart may be missing. Identical values can stand only once. Toxic doses and inconclusive results are not listed. The calls were made as follows: active = survival T/C of 150% or more; inactive = T/C below 125% in these data. Bridge positions count the residues as written; N and C are the ends. Square brackets hold non-standard residues; d marks the D form. Peptide text beside a SMILES is read from it. NMeV = CN[CH](C(=O)O)C(C)C; Sar = CNCC(=O)O

Tested on: P388 leukemia ip, CD2F1 mice, survival T/C
Assay: NCI In Vivo Anticancer Drug Screen. Data for tumor model P388 Leukemia (intraperitoneal) in CD2F1 (CDF1) mice
Conditions: endpoint: median survival time, higher = longer survival
In short: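 Mice carrying the transplanted tumor received test compound or vehicle. Survival was recorded in each group, and the value is the treated-group measurement divided by that of the vehicle-treated control group.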

[1] = dose: 100.0 mg/kg/injection, schedule: Q04DX003 (ip), vehicle: saline
[2] = dose: 200.0 mg/kg/injection, schedule: Q04DX003 (ip), vehicle: saline
[3] = dose: 400.0 mg/kg/injection, schedule: Q04DX003 (ip), vehicle: saline
[4] = dose: 50.0 mg/kg/injection, schedule: Q01DX005 (ip), vehicle: saline with Tween-80
[5] = dose: 12.5 mg/kg/injection, schedule: Q01DX009 (ip), vehicle: saline with Tween-80
[6] = dose: 50.0 mg/kg/injection, schedule: Q01DX009 (ip), vehicle: saline with Tween-80
[7] = dose: 100.0 mg/kg/injection, schedule: Q01DX009 (ip), vehicle: saline with Tween-80
[8] = dose: 100.0 mg/kg/injection, schedule: Q01DX001 (ip), vehicle: saline with Tween-80
[9] = dose: 200.0 mg/kg/injection, schedule: Q01DX001 (ip), vehicle: saline with Tween-80
[10] = dose: 50.0 mg/kg/injection, schedule: Q01DX005 (ip), vehicle: Klucel (hydroxypropylcellulose) (HPC)
[11] = dose: 100.0 mg/kg/injection, schedule: Q01DX005 (ip), vehicle: Klucel (hydroxypropylcellulose) (HPC)
[12] = dose: 200.0 mg/kg/injection, schedule: Q01DX005 (ip), vehicle: Klucel (hydroxypropylcellulose) (HPC)
[13] = dose: 200.0 mg/kg/injection, schedule: Q01DX009 (ip), vehicle: saline with Tween-80
[14] = dose: 25.0 mg/kg/injection, schedule: Q01DX009 (ip), vehicle: saline with Tween-80
[15] = dose: 25.0 mg/kg/injection, schedule: Q01DX009 (ip), vehicle: other
[16] = dose: 50.0 mg/kg/injection, schedule: Q01DX009 (ip), vehicle: other
[17] = dose: 50.0 mg/kg/injection, schedule: Q01DX009 (ip), vehicle: saline

Measured: T/C

CC(C)C1NC(=O)C(N)C(C)OC(=O)C(C(C)C)N(C)C(=O)CN(C)C(=O)C2CCCN2C1=O (stereo not given) (tested in a mixture with another compound) (H-TVP[Sar][NMeV]; ester 1-C; configuration not given here)
active: dose: 15.0 micrograms/kg/injection, schedule: Q01DX009 (ip), vehicle: water 163 % of control | dose: 31.0 micrograms/kg/injection, schedule: Q01DX009 (ip), vehicle: water 159 % of control | dose: 62.0 micrograms/kg/injection, schedule: Q01DX009 (ip), vehicle: water 164 % of control | dose: 110.0 micrograms/kg/injection, schedule: Q01DX009 (ip), vehicle: other 200 % of control | dose: 125.0 micrograms/kg/injection, schedule: Q01DX009 (ip), vehicle: water 179 % of control | dose: 165.0 micrograms/kg/injection, schedule: Q01DX009 (ip), vehicle: other 254 % of control | dose: 250.0 micrograms/kg/injection, schedule: Q01DX009 (ip), vehicle: other 180 % of control | dose: 250.0 micrograms/kg/injection, schedule: Q01DX009 (ip), vehicle: water 225 % of control

CS(=O)(=O)OCCCCCCCCCCCCCC1C=CCC1 (stereo not given)
inactive: [1] 99 % of control | [2] 103 % of control | [3] 99 % of control

Cn1cc(Cl)c2ccccc2c1=O
inactive: [4] 101 % of control | dose: 100.0 mg/kg/injection, schedule: Q01DX005 (ip), vehicle: saline with Tween-80 99 % of control | dose: 200.0 mg/kg/injection, schedule: Q01DX005 (ip), vehicle: saline with Tween-80 100 % of control

Nc1cc2c3c(cccc3c1)C(=O)N(CCN1CCCC1)C2=O
active: dose: 12.1 mg/kg/injection, schedule: Q01DX009 (ip), vehicle: saline with Tween-80 163 % of control | dose: 24.2 mg/kg/injection, schedule: Q01DX009 (ip), vehicle: saline with Tween-80 160 % of control and 180 % of control | [6] 173 % of control | [7] 189 % of control
inactive: dose: 6.25 mg/kg/injection, schedule: Q01DX009 (ip), vehicle: saline with Tween-80 102 % of control | dose: 6.5 mg/kg/injection, schedule: Q01DX009 (ip), vehicle: saline with Tween-80 122 % of control | [5] 110 % of control | dose: 48.39 mg/kg/injection, schedule: Q01DX009 (ip), vehicle: saline with Tween-80 86 % of control and 96 % of control

CSc1ncnc2sc(NN)nc12
inactive: dose: 100.0 mg/kg/injection, schedule: Q01DX001 (ip), vehicle: distilled water + alcohol 94 % of control | dose: 200.0 mg/kg/injection, schedule: Q01DX001 (ip), vehicle: distilled water + alcohol 94 % of control | dose: 400.0 mg/kg/injection, schedule: Q01DX001 (ip), vehicle: distilled water + alcohol 102 % of control

c1ccc(P2(c3ccccc3)(c3ccccc3)C3C4C5C6C4C2C6C53)cc1 (stereo not given)
inactive: dose: 50.0 mg/kg/injection, schedule: Q01DX001 (ip), vehicle: saline with Tween-80 109 % of control | [8] 104 % of control | [9] 113 % of control

O=C1NS(=O)(=O)Oc2ccccc2O1
inactive: [10] 107 % of control | [11] 100 % of control | [12] 95 % of control

NC(=S)c1ccc(C2Nc3ccccc3N2)cc1
inactive: dose: 25.0 mg/kg/injection, schedule: Q04DX002 (ip), vehicle: saline with Tween-80 95 % of control | dose: 50.0 mg/kg/injection, schedule: Q04DX002 (ip), vehicle: saline with Tween-80 92 % of control | dose: 100.0 mg/kg/injection, schedule: Q04DX002 (ip), vehicle: saline with Tween-80 87 % of control and 91 % of control

COc1ccc2c(c1OC)C(CC(=O)O)N1CCc3cc4c(cc3C1C2)OCO4 (stereo not given)
inactive: dose: 0.63 mg/kg/injection, schedule: Q01DX009 (ip), vehicle: distilled water + Tween-80 103 % of control | dose: 1.25 mg/kg/injection, schedule: Q01DX009 (ip), vehicle: distilled water + Tween-80 99 % of control | dose: 2.5 mg/kg/injection, schedule: Q01DX009 (ip), vehicle: distilled water + Tween-80 106 % of control | dose: 5.0 mg/kg/injection, schedule: Q01DX009 (ip), vehicle: distilled water + Tween-80 101 % of control | dose: 10.0 mg/kg/injection, schedule: Q01DX009 (ip), vehicle: distilled water + Tween-80 106 % of control | dose: 20.0 mg/kg/injection, schedule: Q01DX009 (ip), vehicle: distilled water + Tween-80 94 % of control

O=C(/C=C/C=C/c1ccccc1)c1ccco1
inactive: [6] 94 % of control | [7] 94 % of control | [13] 99 % of control

CC1(C)Nc2cccc3c(N=Nc4ccc(N=Nc5ccccc5)c5ccccc45)ccc(c23)N1
inactive: [14] 120 % of control and 95 % of control and 97 % of control | [6] 101 % of control and 103 % of control and 112 % of control | [7] 104 % of control and 123 % of control and 91 % of control | [13] 94 % of control and 95 % of control

[N-]=[N+]=CC(=O)c1ccc(Cl)cc1
inactive: dose: 100.0 mg/kg/injection, schedule: Q04DX003 (ip), vehicle: Klucel (hydroxypropylcellulose) (HPC) 108 % of control | dose: 200.0 mg/kg/injection, schedule: Q04DX003 (ip), vehicle: Klucel (hydroxypropylcellulose) (HPC) 115 % of control | dose: 400.0 mg/kg/injection, schedule: Q04DX003 (ip), vehicle: Klucel (hydroxypropylcellulose) (HPC) 107 % of control

O=c1[nH]cc(-c2ccccc2)c(=O)[nH]1
inactive: dose: 100.0 mg/kg/injection, schedule: Q01DX001 (ip), vehicle: Klucel (hydroxypropylcellulose) (HPC) 100 % of control | dose: 200.0 mg/kg/injection, schedule: Q01DX001 (ip), vehicle: Klucel (hydroxypropylcellulose) (HPC) 98 % of control | dose: 400.0 mg/kg/injection, schedule: Q01DX001 (ip), vehicle: Klucel (hydroxypropylcellulose) (HPC) 96 % of control

O=C(NC(=S)c1ccc(Br)cc1)NS(=O)(=O)c1ccc(Cl)cc1
inactive: [8] 96 % of control | [9] 92 % of control | dose: 400.0 mg/kg/injection, schedule: Q01DX001 (ip), vehicle: saline with Tween-80 102 % of control

O=[N+]([O-])c1cc2c(cc1C=Nc1ccc(O)cc1)OCO2
inactive: dose: 12.5 mg/kg/injection, schedule: Q01DX009 (ip), vehicle: other 113 % of control | [15] 117 % of control | [16] 113 % of control | dose: 100.0 mg/kg/injection, schedule: Q01DX009 (ip), vehicle: other 96 % of control | dose: 200.0 mg/kg/injection, schedule: Q01DX009 (ip), vehicle: other 110 % of control | dose: 400.0 mg/kg/injection, schedule: Q01DX009 (ip), vehicle: other 113 % of control

Cc1ccc(NNC(=O)C(=O)O[C@H]2C(=O)OC[C@@H]2O)cc1
inactive: [10] 100 % of control | [11] 100 % of control | [12] 93 % of control

COc1cc(OC)c(Br)cc1C
inactive: [5] 100 % of control | [14] 91 % of control | [6] 91 % of control | dose: 100.0 mg/kg/injection, schedule: Q04DX003 (ip), vehicle: saline with Tween-80 104 % of control | dose: 200.0 mg/kg/injection, schedule: Q04DX003 (ip), vehicle: saline with Tween-80 104 % of control | dose: 400.0 mg/kg/injection, schedule: Q04DX003 (ip), vehicle: saline with Tween-80 104 % of control

CN(C)CCC(=O)/C=C\c1ccccc1
inactive: dose: 25.0 mg/kg/injection, schedule: Q01DX009 (ip), vehicle: saline 107 % of control | [17] 108 % of control

CCOC(=O)/C=C/C(F)(F)C(F)(F)C(F)(F)C(F)(F)C(F)(F)C(F)(F)C(F)(F)F
inactive: [1] 100 % of control | [2] 100 % of control | [3] 100 % of control

CC(C)=CC(=O)Sc1ccccc1
inactive: dose: 12.5 mg/kg/injection, schedule: Q01DX005 (ip), vehicle: saline with Tween-80 101 % of control | dose: 25.0 mg/kg/injection, schedule: Q01DX005 (ip), vehicle: saline with Tween-80 94 % of control | [4] 102 % of control and 104 % of control

NC(N)=NCCCC(N)C(=O)O (stereo not given)
inactive: [17] 119 % of control | dose: 100.0 mg/kg/injection, schedule: Q01DX009 (ip), vehicle: saline 100 % of control and 122 % of control | dose: 200.0 mg/kg/injection, schedule: Q01DX009 (ip), vehicle: saline 105 % of control and 110 % of control | dose: 400.0 mg/kg/injection, schedule: Q01DX009 (ip), vehicle: saline 100 % of control

CNC(=S)NNc1ccc(Cl)c(Cl)c1
inactive: [15] 112 % of control | [16] 108 % of control
